Assay results taken from the CheMixHub viscosity set.

Test: xn = mol fraction of the nth substance listed

BrC(Br)Br + CCCCCCCCCO
viscosity [mPa·s], 101.3 kPa
Settings	x1 = 0.105	x1 = 0.299	x1 = 0.404	x1 = 0.504	x1 = 0.604	x1 = 0.704	x1 = 0.802	x1 = 0.903
298.15 K	7.847	5.743	5.079	4.228	3.571	2.984	2.492	2.12
303.15 K	6.517	4.87	4.38	3.693	3.151	2.669	2.266	1.963
308.15 K	5.421	4.144	3.777	3.24	2.802	2.399	2.065	1.818

C=Cc1ccccc1 + CCCCCO
viscosity [mPa·s], 101.33 kPa
Settings	x1 = 0.1003	x1 = 0.1994	x1 = 0.3003	x1 = 0.3977	x1 = 0.4969	x1 = 0.5963	x1 = 0.7027	x1 = 0.8026	x1 = 0.9011
298.15 K	2.791	2.141	1.602	1.32	1.112	0.984	0.859	0.783	0.737
303.15 K	2.472	1.984	1.404	1.175	1.013	0.901	0.793	0.741	0.692
308.15 K	2.166	1.638	1.25	1.046	0.915	0.82	0.722	0.68	0.637

BrC(Br)Br + CCC(C)=O
viscosity [mPa·s]
Settings	x1 = 0.1474	x1 = 0.1586	x1 = 0.3005	x1 = 0.3052	x1 = 0.5009	x1 = 0.5019	x1 = 0.6499	x1 = 0.6501	x1 = 0.8432	x1 = 0.8502
298 K, 101.3 kPa	–	0.583	–	0.768	1.072	–	–	1.318	1.626	–
318 K, 101.33 kPa	0.4678	–	0.6228	–	–	0.8523	1.038	–	–	1.298

CC(=O)c1ccc(Cl)cc1 + CCCCCCO
303.15 K, 101 kPa
Settings	viscosity [mPa·s]
x1 = 0.0521	3.667
x1 = 0.1009	3.442
x1 = 0.1668	3.212
x1 = 0.2325	2.982
x1 = 0.3002	2.791
x1 = 0.4028	2.603
x1 = 0.5001	2.511
x1 = 0.5708	2.462
x1 = 0.641	2.437
x1 = 0.6998	2.428
x1 = 0.7655	2.448
x1 = 0.8376	2.502
x1 = 0.9007	2.589
x1 = 0.9513	2.717

CCC(C)(C)OC + CCCCCO
298.15 K, 101.33 kPa
Settings	viscosity [mPa·s]
x1 = 0.0219	3.286
x1 = 0.0388	3.133
x1 = 0.0752	2.891
x1 = 0.1143	2.511
x1 = 0.1631	2.192
x1 = 0.211	1.93
x1 = 0.2721	1.651
x1 = 0.3347	1.417
x1 = 0.3464	1.374
x1 = 0.385	1.26
x1 = 0.4353	1.125
x1 = 0.4908	1.003
x1 = 0.5534	0.886
x1 = 0.6141	0.789
x1 = 0.6759	0.71
x1 = 0.7266	0.652
x1 = 0.8027	0.579
x1 = 0.8732	0.521
x1 = 0.9484	0.469
x2 = 0.0064	0.441

CCCCCCCCO + CCCCCCCO
viscosity [mPa·s]
Settings	293.15 K	298.15 K	308.15 K	318.15 K
101.33 kPa, x2 = 0.1671	8.821	7.374	–	–
101.33 kPa, x2 = 0.3071	8.507	7.128	–	–
101.33 kPa, x2 = 0.4819	8.113	6.847	–	–
101.33 kPa, x2 = 0.6319	7.827	6.588	–	–
101.33 kPa, x2 = 0.6868	7.688	6.471	–	–
101.33 kPa, x2 = 0.8784	7.302	6.161	–	–
101.8 kPa, x2 = 0.1105	–	7.442	5.362	3.936
101.8 kPa, x2 = 0.3246	–	7.122	5.139	3.78
101.8 kPa, x2 = 0.5285	–	6.742	4.884	3.607
101.8 kPa, x2 = 0.723	–	6.415	4.676	3.463
101.8 kPa, x2 = 0.9101	–	6.128	4.474	3.324

CC12CC3CC(C1)CC(C)(C3)C2 + CCCCCCCCC
viscosity [mPa·s], 100 kPa
Settings	x1 = 0.1004	x1 = 0.2014	x1 = 0.3	x1 = 0.4003	x1 = 0.5004	x1 = 0.6001	x1 = 0.7005	x1 = 0.7994	x1 = 0.8997
293.15 K	0.802	0.912	1.033	1.203	1.39	1.647	1.986	2.44	2.984
298.15 K	0.748	0.848	0.958	1.111	1.279	1.501	1.8	2.183	2.68
303.15 K	0.699	0.791	0.891	1.028	1.182	1.377	1.635	1.992	2.419
308.15 K	0.656	0.74	0.831	0.956	1.093	1.267	1.509	1.816	2.196
313.15 K	0.617	0.694	0.777	0.891	1.018	1.18	1.399	1.661	2
318.15 K	0.582	0.652	0.728	0.833	0.947	1.09	1.282	1.527	1.829
323.15 K	0.55	0.615	0.685	0.78	0.885	1.018	1.193	1.411	1.68

CCCCCCCCO + CCCCO
viscosity [mPa·s], 101 kPa
Settings	298.15 K	308.15 K	318.15 K
x2 = 0.05	7.06	5.06	3.734
x2 = 0.1	6.764	4.867	3.602
x2 = 0.15	6.475	4.678	3.472
x2 = 0.2	6.193	4.492	3.345
x2 = 0.25	5.917	4.309	3.22
x2 = 0.3	5.646	4.129	3.097
x2 = 0.35	5.382	3.953	2.975
x2 = 0.4	5.123	3.779	2.855
x2 = 0.45	4.87	3.608	2.736
x2 = 0.5	4.622	3.44	2.618
x2 = 0.55	4.38	3.275	2.502
x2 = 0.6	4.145	3.113	2.388
x2 = 0.65	3.915	2.955	2.275
x2 = 0.7	3.692	2.8	2.164
x2 = 0.75	3.476	2.649	2.055
x2 = 0.8	3.268	2.502	1.948
x2 = 0.85	3.067	2.36	1.845
x2 = 0.9	2.875	2.223	1.744
x2 = 0.95	2.693	2.092	1.648

[Cl-].[Rb+] + O
310.15 K, 101 kPa
Settings	viscosity [mPa·s]
x1 = 0.000184	0.6947
x1 = 0.000842	0.6943
x1 = 0.002695	0.6937
x1 = 0.003302	0.6937
x1 = 0.003679	0.6938
x1 = 0.005197	0.6944
x1 = 0.005988	0.695

CCCCCCCCO + CC#N
viscosity [mPa·s], 101 kPa
Settings	298.15 K	303.15 K	308.15 K
x2 = 0.1277	5.028	4.029	3.493
x2 = 0.2608	3.533	3.09	2.688
x2 = 0.3381	2.848	2.53	2.203
x2 = 0.4447	2.086	1.862	1.638
x2 = 0.5793	1.427	1.282	1.151
x2 = 0.68	1.028	0.927	0.84
x2 = 0.7638	0.77	0.701	0.647
x2 = 0.8283	0.695	0.562	0.523
x2 = 0.8825	0.502	0.472	0.446
x2 = 0.9273	0.435	0.414	0.391
x2 = 0.967	0.39	0.364	0.346

C=Cc1ccccc1 + c1ccccc1
viscosity [mPa·s], 101 kPa
Settings	x2 = 0.1362	x2 = 0.2498	x2 = 0.3047	x2 = 0.4109	x2 = 0.5207	x2 = 0.5834	x2 = 0.7114	x2 = 0.7924	x2 = 0.8831
298.15 K	0.672	0.654	0.645	0.633	0.623	0.618	0.608	0.605	0.604
303.15 K	0.629	0.61	0.6	0.589	0.577	0.57	0.56	0.556	0.555
308.15 K	0.59	0.57	0.56	0.548	0.537	0.53	0.52	0.515	0.514
313.15 K	0.54	0.518	0.51	0.499	0.487	0.48	0.47	0.466	0.465

CC#N + CCO
viscosity [mPa·s]
Settings	293.15 K	298.15 K	303.15 K	308.15 K	313.15 K
101 kPa, x1 = 0.0898	–	0.87	0.736	0.632	–
101 kPa, x1 = 0.187	–	0.71	0.606	0.523	–
101 kPa, x1 = 0.2973	–	0.594	0.518	0.454	–
101 kPa, x1 = 0.396	–	0.517	0.455	0.405	–
101 kPa, x1 = 0.4843	–	0.463	0.409	0.364	–
101 kPa, x1 = 0.5987	–	0.416	0.37	0.334	–
101 kPa, x1 = 0.7114	–	0.376	0.342	0.309	–
101 kPa, x1 = 0.8072	–	0.357	0.325	0.298	–
101 kPa, x1 = 0.9139	–	0.345	0.314	0.29	–
101.3 kPa, x1 = 0.1107	–	0.85	0.779	0.715	0.656
101.3 kPa, x1 = 0.2192	–	0.693	0.642	0.589	0.542
101.3 kPa, x1 = 0.3249	–	0.584	0.545	0.499	0.467
101.3 kPa, x1 = 0.4279	–	0.506	0.473	0.444	0.417
101.3 kPa, x1 = 0.5288	–	0.458	0.428	0.405	0.38
101.3 kPa, x1 = 0.6267	–	0.414	0.391	0.377	0.352
101.3 kPa, x1 = 0.7236	–	0.392	0.366	0.347	0.331
101.3 kPa, x1 = 0.8179	–	0.37	0.349	0.333	0.316
101.3 kPa, x1 = 0.9099	–	0.354	0.336	0.317	0.301
101.33 kPa, x1 = 0.04	1.12	–	–	–	–
101.33 kPa, x1 = 0.1	0.9979	–	–	–	–
101.33 kPa, x1 = 0.12	0.939	–	–	–	–
101.33 kPa, x1 = 0.17	0.9065	–	–	–	–
101.33 kPa, x1 = 0.28	0.7033	–	–	–	–
101.33 kPa, x1 = 0.33	0.6415	–	–	–	–
101.33 kPa, x1 = 0.43	0.5585	–	–	–	–
101.33 kPa, x1 = 0.67	0.4418	–	–	–	–
101.33 kPa, x1 = 0.83	0.4001	–	–	–	–

C=Cc1ccccc1 + CCCCO
viscosity [mPa·s], 101.33 kPa
Settings	x1 = 0.0999	x1 = 0.2019	x1 = 0.2994	x1 = 0.3982	x1 = 0.5226	x1 = 0.602	x1 = 0.703	x1 = 0.7942	x1 = 0.8935
298.15 K	1.971	1.644	1.368	1.165	0.969	0.913	0.821	0.772	0.729
303.15 K	1.809	1.47	1.23	1.052	0.885	0.83	0.767	0.721	0.681
308.15 K	1.636	1.327	1.104	0.95	0.811	0.762	0.693	0.66	0.63

C=Cc1ccccc1 + CCCCCCCCCC
viscosity [mPa·s], 101.33 kPa
Settings	x1 = 0.1007	x1 = 0.2052	x1 = 0.2991	x1 = 0.4114	x1 = 0.4959	x1 = 0.6135	x1 = 0.6992	x1 = 0.8062	x1 = 0.8984
298.15 K	0.803	0.773	0.75	0.724	0.706	0.688	0.68	0.677	0.693
303.15 K	0.749	0.722	0.702	0.678	0.663	0.646	0.638	0.633	0.644
308.15 K	0.7	0.678	0.658	0.638	0.624	0.607	0.602	0.6	0.611

CC(C)(C)N + CCOCCO
308.15 K, 101 kPa
Settings	viscosity [mPa·s]
x2 = 0.1082	0.5474
x2 = 0.2145	0.6798
x2 = 0.3189	0.8102
x2 = 0.4214	0.9309
x2 = 0.5221	1.046
x2 = 0.6211	1.149
x2 = 0.7182	1.245
x2 = 0.8138	1.327
x2 = 0.9077	1.399
